Experimental data published in US9957271B2, “Substituted bicyclic aza-heterocycles and analogues as sirtuin modulators” (GlaxoSmithKline, LLC, priority 2012, dated 2018).
Read-outs that look alike come from different tables or passages of the source.

Target: T1, SIRT1 (Homo sapiens, UniProt Q96EB6)
T1 sequence (Q96EB6 1-747): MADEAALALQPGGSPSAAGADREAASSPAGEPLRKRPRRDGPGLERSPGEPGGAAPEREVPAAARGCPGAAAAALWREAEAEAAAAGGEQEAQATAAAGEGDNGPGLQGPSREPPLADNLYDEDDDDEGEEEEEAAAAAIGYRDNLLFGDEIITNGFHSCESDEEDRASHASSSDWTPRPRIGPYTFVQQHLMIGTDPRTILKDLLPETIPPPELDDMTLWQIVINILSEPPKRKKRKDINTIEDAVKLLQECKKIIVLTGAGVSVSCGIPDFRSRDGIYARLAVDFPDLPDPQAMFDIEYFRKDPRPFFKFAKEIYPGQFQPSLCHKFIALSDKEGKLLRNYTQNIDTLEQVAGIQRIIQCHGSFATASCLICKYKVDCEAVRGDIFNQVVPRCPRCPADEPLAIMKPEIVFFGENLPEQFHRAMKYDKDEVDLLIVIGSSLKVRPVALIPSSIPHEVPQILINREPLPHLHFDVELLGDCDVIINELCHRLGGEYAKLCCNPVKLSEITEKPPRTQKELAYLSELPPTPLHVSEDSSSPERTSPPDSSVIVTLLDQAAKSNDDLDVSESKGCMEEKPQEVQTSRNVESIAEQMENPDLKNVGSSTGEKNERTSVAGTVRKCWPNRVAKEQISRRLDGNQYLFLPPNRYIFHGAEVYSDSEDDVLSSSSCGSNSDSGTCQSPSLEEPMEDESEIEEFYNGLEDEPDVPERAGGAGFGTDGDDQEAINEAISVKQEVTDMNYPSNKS
Test: Trp mass spectrometry assay of SIRT1 activity
Format: biochemical
Conditions: for Trp EC1.5 (μM): concentration giving 150% activation of SIRT1; for Emax: read-out: Trp % Fold Act
Method in brief: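 His-tagged SIRT1 expressed in E. coli BL21(DE3), 10 nM, incubated 25 min at 25° C. with 0.5 μM Ac-RHKK(Ac)W-NH2 peptide and 120 μM βNAD+ in 50 mM HEPES pH 7.5, […], 1 mM DTT, 0.05% BSA; formic acid stop. OAADPR or deacetylated peptide measured by mass spectrometry; EC1.5 and percent maximum activation versus DMSO control.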

[1] = Trp assay, percent maximum fold activation
[2] = percent maximum fold activation of SIRT1, Trp peptide substrate

Trp EC1.5 (μM) (Trp assay)	Emax [1] [%]	Emax [2] [%]	Structure (SMILES)
A (EC1.5<1 μM)	< 350		O=C(Nc1cccnn1)c1cnc2ccc(-c3cccc(OC[C@H](O)CO)c3)nn12 [Compound 887]
	≥ 350		C[C@@H]1CN(c2ccc3ncc(C(=O)Nc4cccnc4)n3n2)C[C@H](C)O1 [Compound 995]
B (EC1.5 1-25 μM)	< 350		O=C(Nc1ccccn1)c1cnc2ccc(N3CC(F)(F)C3)nn12 [Compound 912]
	≥ 350		O=C(Nc1ccccn1)c1cnc2ccc(N3CCCC3C(F)(F)F)nn12 (stereo not drawn) [Compound 974]
B (EC1.5 1-25 μM)	< 350		CN(C)[C@H]1CCN(c2ccc3ncc(C(=O)Nc4ncccn4)n3n2)C1 [Compound 886]
B (EC1.5 1-25 μM)	< 350		O=C(Nc1ccncn1)c1cnc2ccc(N3CCCC3)nn12 [Compound 894]
		≥ 350	Cc1nc2ccc(N3CCC(F)(F)C3)nn2c1C(=O)Nc1cccnn1 [Compound 1005]
B (EC1.5 1-25 μM)	≥ 350		Cc1nc2ccc(N3CC[C@H](N(C)C)C3)nn2c1C(=O)Nc1ccccn1 [Compound 867]
B (EC1.5 1-25 μM)	< 350		Cc1nc2ccc(N3CC[C@H](N(C)C)C3)nn2c1C(=O)Nc1cnccn1 [Compound 871]
	< 350		CN1CCN(c2ccc3ncc(C(=O)Nc4ccc(F)cn4)n3n2)CC1 [Compound 947]
		≥ 350	CC1CCCN1c1ccn2ncc(C(=O)Nc3cccnn3)c2n1 (stereo not drawn) [Compound 1040]
		< 350	CC1CCCN1c1ccn2ncc(C(=O)Nc3ccncn3)c2n1 (stereo not drawn) [Compound 1042]
		< 350	COc1nccc(NC(=O)c2cnc3ccc(N4CCC[C@@H]4C)nn23)n1 [Compound 1051]
		≥ 350	O=C(Nc1cccc(-c2cnco2)n1)c1cnc2ccc(N3CCCC3C(F)(F)F)nn12 (stereo not drawn) [Compound 1099]
	< 350		CN1CCN(c2ccc3ncc(C(=O)Nc4ccccn4)n3n2)CC1 [Compound 948]
B (EC1.5 1-25 μM)	< 350		O=C(Nc1ccncn1)c1cnc2ccc(N3CC[C@H](F)C3)nn12 [Compound 851]
B (EC1.5 1-25 μM)	< 350		Cc1cncc(NC(=O)c2cnc3ccc(N4CC[C@H](F)C4)nn23)c1 [Compound 889]
	< 350		CO[C@H]1CCN(c2ccc3ncc(C(=O)Nc4ccncn4)n3n2)C1 [Compound 973, (S)-6-(3-methoxypyrrolidin-1-yl)-N-(pyrimidin-4-yl)imidazo[1,2-b]pyridazine-3-carboxamide]
		≥ 350	O=C(Nc1cccnn1)c1cnn2ccc(N3CCC(C(F)(F)F)CC3)nc12 [Compound 1062]
		≥ 350	O=C(Nc1cccnc1)c1cnn2ccc(N3CCC[C@H]3C(F)(F)F)nc12 [Compound 1026]
B (EC1.5 1-25 μM)	< 350		CN(C)[C@H]1CCN(c2ccc3ncc(C(=O)Nc4cccnc4)n3n2)C1 [Compound 868]
B (EC1.5 1-25 μM)	< 350		O=C(Nc1cnc2ccc(-c3ccccc3OC(F)(F)F)nn12)c1cnccn1 [Compound 314]
B (EC1.5 1-25 μM)	< 350		Cc1nc2ccc(N3CC[C@H](N(C)C)C3)nn2c1C(=O)Nc1ncccn1 [Compound 885]
	≥ 350		Cc1nc2ccc(N3CCC(F)(F)C3)nn2c1C(=O)Nc1cccnc1 [Compound 980, 6-(3,3-difluoropyrrolidin-1-yl)-2-methyl-N-(pyridin-3-yl)imidazo[1,2-b]pyridazine-3-carboxamide]
A (EC1.5<1 μM)	≥ 350		CN(C)c1ccnc(NC(=O)c2cnc3ccc(N4CC[C@H](F)C4)nn23)n1 [Compound 923]
B (EC1.5 1-25 μM)	≥ 350		O=C(Nc1cncc(F)c1)c1cnc2ccc(N3CCC(F)(F)CC3)nn12 [Compound 929]
		< 350	C[C@H]1CCCN1c1ccc2ncc(C(=O)Nc3ccncn3)n2n1 [Compound 1057]

The remaining lines, values behind:

Structure (SMILES)	Trp EC1.5 (μM) (Trp assay)	Emax [1] [%]	Emax [2] [%]
Cc1nc(NC(=O)c2cnc3ccc(N4CCCC4C(F)(F)F)nn23)sc1C (stereo not drawn) [Compound 969]		≥ 350	
O=C(Nc1ccccn1)c1cnc2ccc(-c3cccc(OC[C@H](O)CO)c3)nn12 [Compound 847]	A (EC1.5<1 μM)	≥ 350	
O=C(Nc1cnccn1)c1cnn2ccc(N3CCC[C@@H]3C(F)(F)F)nc12 [Compound 1078]			≥ 350
Cc1nc2c(OC[C@H](O)CO)cc(-c3ccccc3C(F)(F)F)nn2c1C(=O)Nc1ccncc1 [Compound 863]	A (EC1.5<1 μM)	≥ 350	
O=C(Nc1cccnc1)c1cnc2ccc(N3CC[C@H](F)C3)nn12 [Compound 837]	B (EC1.5 1-25 μM)	< 350	
C[C@H]1CCCN1c1ccc2ncc(C(=O)Nc3cncc(F)c3)n2n1 [Compound 1059]			< 350
O=C(Nc1ccncn1)c1cnc2ccc(N3CCCC3C(F)(F)F)nn12 (stereo not drawn) [Compound 970, N-(pyrimidin-4-yl)-6-(2-(trifluoromethyl)pyrrolidin-1-yl)imidazo[1,2-b]pyridazine-3-carboxamide]		≥ 350	
CO[C@H]1CCN(c2ccc3ncc(C(=O)Nc4cccnc4)n3n2)C1 [Compound 934]	B (EC1.5 1-25 μM)	< 350	
O=C(Nc1cccnn1)c1cnc2ccc(N3CC(F)(F)C3)nn12 [Compound 916]	C (EC1.5>25 μM)	< 350	
CN(C)[C@H]1CCN(c2ccc3ncc(C(=O)Nc4cnccn4)n3n2)C1 [Compound 873]	B (EC1.5 1-25 μM)	≥ 350	
Cc1cncc(NC(=O)c2cnn3ccc(N4CCCC4C)nc23)c1 (stereo not drawn) [Compound 1045]			< 350
CC1CCN(c2ccc3ncc(C(=O)Nc4ccc(F)cn4)n3n2)C1 (stereo not drawn) [Compound 977]		< 350	
O=C(Nc1ccncc1F)c1cnc2ccc(N3CCCC(C(F)(F)F)C3)nn12 (stereo not drawn) [Compound 931]	A (EC1.5<1 μM)	≥ 350	
Cc1nc2ccc(N3CC[C@H](F)C3)nn2c1C(=O)Nc1ccccn1 [Compound 840]	B (EC1.5 1-25 μM)	≥ 350	
O=C(Nc1nc2c(s1)CCCC2)c1cnc2ccc(N3CCCC3C(F)(F)F)nn12 (stereo not drawn) [Compound 1096]			≥ 350
O=C(Nc1cncc(F)c1)c1cnc2ccc(N3CCCC3C(F)(F)F)nn12 (stereo not drawn) [Compound 967]		≥ 350	

Structure (SMILES)	Trp EC1.5 (μM) (Trp assay)	Emax [1] [%]	Emax [2] [%]
Cn1cc2ccc(NC(=O)c3cnc4ccc(N5CCC[C@@H]5C(F)(F)F)nn34)cc2n1 [Compound 1020]			≥ 350
COc1nccc(NC(=O)c2c(C)nn3ccc(N4CCC[C@H]4C(F)(F)F)nc23)n1 [Compound 1049]			≥ 350
Cc1ccnc(NC(=O)c2c(C)nc3c(OC[C@H](O)CO)cc(-c4ccccc4C(F)(F)F)nn23)c1 [Compound 859]	A (EC1.5<1 μM)	≥ 350	
CC1(C)CCN(c2ccc3ncc(C(=O)Nc4cccnn4)n3n2)C1 [Compound 955]		≥ 350	
Cc1cc(NC(=O)c2cnc3ccc(N4CC[C@H](F)C4)nn23)nc(C)n1 [Compound 893]	C (EC1.5>25 μM)	< 350	
CN(C)c1ccnc(NC(=O)c2cnc3ccc(-c4cccc(OC[C@H](O)CO)c4)nn23)c1 [Compound 878]	B (EC1.5 1-25 μM)	< 350	
O=C(Nc1cccnn1)c1cnn2ccc(N3CCC[C@@H]3C(F)(F)F)nc12 [Compound 1079]			≥ 350
O=C(Nc1cnccn1)c1cnn2ccc(N3CCC[C@H]3C(F)(F)F)nc12 [Compound 1031]			≥ 350
CO[C@H]1CCN(c2ccc3ncc(C(=O)Nc4ccc(F)cn4)n3n2)C1 [Compound 935]	B (EC1.5 1-25 μM)	< 350	
O=C(Nc1ccncn1)c1cnc2ccc(N3CCOCC3)nn12 [Compound 961]		< 350	
O=C(Nc1ccncn1)c1cnc2ccc(N3CCC[C@H](F)C3)nn12 [Compound 993]		≥ 350	
O=C(Nc1cccnc1)c1cnc2ccc(N3CCC(C(F)(F)F)C3)nn12 (stereo not drawn) [Compound 958]		≥ 350	
O=C(Nc1ccc(F)cn1)c1cnc2ccc(N3CCC(F)(F)CC3)nn12 [Compound 962]		< 350	
O=C(Nc1cccc2c1COB2O)c1cnc2ccc(N3CCCC3C(F)(F)F)nn12 (stereo not drawn) [Compound 1097]			≥ 350
CN1CCc2ncc(NC(=O)c3cnc4ccc(N5CCCC5C(F)(F)F)nn34)cc2C1 (stereo not drawn) [Compound 1094]			≥ 350
O=C(Nc1ccccn1)c1cnc2ccc(N3CC[C@H](O)C3)nn12 [Compound 981]		< 350	
